The subject of assay [1] is 6-OHDA lesioned rats. The assay is described as follows: Apomorphine-induced rotations in 6-OHDA lesioned rat model of PD. It is filed as in vivo. Particulars: 10mg/kg/day gavage for three weeks, day 24 post-lesion. How it is done: (§1) All surgical procedures were performed under general anesthesia with ketamine/xylazine. 2μl 6-OHDA (20 mg/ml in 0.02% ascorbic acid) was stereotaxically injected into the right striatum of male SD rats. Lesion coordinates were set according to bregma and dura in mm: ML-3.7; AP-1.0; DV-5.5. The injection rate was 2μl/5 min and the injecting needle was left for 2 minutes after injection to avoid back flow. Apomorphine-induced rotations (see below) were assessed three days post-lesion and rats with ≥ 30 full contralateral rotation/30 minutes were included in the study.
(§2) Rats were randomly grouped into vehicle control group (n = 11) and drug treatment group (n = 10). […] The control group received DMSO/corn oil (vehicle). The treatment continued for three weeks.
Apomorphine (APO)-induced rotations were performed as described by Fisher et al.. Briefly, immediately after apomorphine injection (0.5 mg/kg body weight), animals were placed in an open area. A camera monitored the animal behavior and computerized software analyzed the number of contralateral and ipsilateral rotations in 30 minutes testing. Rotations were assessed three days post-lesion and after three weeks of treatment (24 days post-lesion). Data were expressed as average contralateral turns per minute.

In assay [2] the test system is tyrosine hydroxylase (TH)-positive DA neurons. Nature of the assay: DA neuron survival in primary ventral midbrain (VMB) culture. The conditions noted are these: primary VMB neurons, dose-dependent. It is filed as cell-based, mouse. The method, then: Ventral midbrain (VMB) from E13.5-14.5 C57BL/6 mouse embryos were dissected, triturated and plated on poly-D-lysine coated 12 well plates or glass coverslips with the serum-free chemically-defined Neurobasal medium, supplemented with 2% B27, 0.5mM L-glutamine, 50I.U./ml penicillin and 50μg/ml streptomycin (Gibco-BRL). […] For each time point, cells were washed once with phosphate buffered saline and fixed with 4% paraformaldehyde for TH immunofluorescent staining. For cell counting, 10 frames were randomly captured from each well using a Leica fluorescent microscope and a minimum of four replicates for each dose and each time point were analyzed for each experiment.

In assay [3] the test system is 6-OHDA lesioned rats. Nature of the assay: DAT and TH content in the striatum by Western blot, 6-OHDA lesioned rats. The conditions noted are these: 10mg/kg/day gavage for three weeks. Format: in vivo, rat. The method, then:
as §1, §2
Striatum samples were homogenized and boiled in SDS-PAGE sample buffer and separated onto 10% Tris-glycine gels. Western blotting was performed using anti-TH or anti-DAT (Millipore, Billerica, MA), as primary antibodies and enhanced chemiluminescence signals were quantified and normalized with β-actin.
For orientation: A western blot detects proteins with antibodies after separation by electrophoresis.

Assay [4] deals with 6-OHDA lesioned rats. The assay is described as follows: Dopamine and metabolites in the striatum by HPLC, 6-OHDA lesioned rats. It is filed as in vivo, rat. Particulars: 10mg/kg/day gavage for three weeks, p < 0.01. How it is done: as §1
Rats were randomly grouped into vehicle control group (n = 11) and drug treatment group (n = 10). […] The control group received DMSO/corn oil (vehicle). […]
The left and right striatum were isolated and homogenized with artificial cerebrospinal fluid and centrifuged at x10,000 g for 15 minutes. Protein content of the supernatant was measured by Bradford assay (Bio-Rad). Dopamine, HVA and DOPAC were measured using an isocratic HPLC system with electrochemical detection, consisting of a pump (ESA model 582 [ESA Chelmsford, MA]), automatic injector (ESA model 542 Autosampler), and a Coulochem III detector (ESA) in conjunction with a guard cell (ESA model 5020) and an analytical cell (ESA model 5014B). […] Data were collected and analyzed using the EZStart software (Agilent Technologies, Santa Clara, CA). […]

Another assay has as its target PPARγ (Homo sapiens, UniProt P37231). Particulars: at physiological concentrations. The text has this: (§3) For RXR: CV-1 cells were transfected with rCRBPII/RXRE-tk-Luc reporter gene and an expression vector for RXRα, β, or γ. For RAR: CV-1 cells were transfected with ERE-tk-Luc reporter gene and an expression vector for the appropriate ER-RARα, β, or γ. ER-RARs are fusion proteins, composed of the estrogen receptor (ER) DNA binding domain fused to the ligand binding domain of RARs. This system eliminates interference by the low level of endogenous RAR activity in CV1 cells as the readout comes only from the transfected ER-RAR. For PPARγ: CV-1 cells were transfected with 3x(rAOX/DR1)-tk-Luc reporter gene and an expression vector for PPARγ; for FXR: CV-1 cells were transfected with 3x(IBABP/IR1)-tk-Luc reporter gene and vectors for FXR and RXRα; for LXR: CV-1 cells were transfected with 3x(PLTP/LXRE)-tk-Luc reporter gene with vectors for LXRα or LXRβ. For Nurr1: COS7 cells were transfected with 3xNBRE-tk-luc reporter gene and full length Nurr1 with or without full-length RXRα plasmid. […] Luciferase data were normalized to co-transfected β-gal activity. Luciferase activity is expressed as percent of maximal activity obtained using specific agonists 9-cis-retinoic acid (RXR), retinoic acid (RAR), rosiglitazone (PPARγ), GW4064 (FXR), T0901317 (LXR).

The target in the next assay is RXRβ (Homo sapiens, UniProt P28702). Particulars: CV-1 cells, 20h.
RXRβ, sequence (P28702 whole entry): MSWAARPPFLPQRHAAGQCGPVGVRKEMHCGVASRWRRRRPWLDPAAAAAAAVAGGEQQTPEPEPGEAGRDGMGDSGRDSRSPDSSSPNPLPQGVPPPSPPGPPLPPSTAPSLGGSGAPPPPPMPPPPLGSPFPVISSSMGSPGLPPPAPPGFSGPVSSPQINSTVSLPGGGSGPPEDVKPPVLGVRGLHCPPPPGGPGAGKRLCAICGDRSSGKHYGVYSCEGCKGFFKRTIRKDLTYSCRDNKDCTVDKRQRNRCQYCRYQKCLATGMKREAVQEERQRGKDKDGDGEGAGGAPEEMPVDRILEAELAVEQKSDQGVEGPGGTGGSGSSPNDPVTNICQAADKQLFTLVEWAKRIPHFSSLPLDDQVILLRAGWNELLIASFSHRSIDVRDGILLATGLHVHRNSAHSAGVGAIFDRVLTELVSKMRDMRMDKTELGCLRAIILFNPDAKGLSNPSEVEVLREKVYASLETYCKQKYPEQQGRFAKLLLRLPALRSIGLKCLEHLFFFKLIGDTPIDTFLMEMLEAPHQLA
From the text: as §3

The values that follow come from publication PMC4884932, “Selective brain penetrable Nurr1 transactivator for treating Parkinson's disease” (Oncotarget, 2016).

PPARγ, sequence (P37231 whole entry, species assumed, the tested form may be a part): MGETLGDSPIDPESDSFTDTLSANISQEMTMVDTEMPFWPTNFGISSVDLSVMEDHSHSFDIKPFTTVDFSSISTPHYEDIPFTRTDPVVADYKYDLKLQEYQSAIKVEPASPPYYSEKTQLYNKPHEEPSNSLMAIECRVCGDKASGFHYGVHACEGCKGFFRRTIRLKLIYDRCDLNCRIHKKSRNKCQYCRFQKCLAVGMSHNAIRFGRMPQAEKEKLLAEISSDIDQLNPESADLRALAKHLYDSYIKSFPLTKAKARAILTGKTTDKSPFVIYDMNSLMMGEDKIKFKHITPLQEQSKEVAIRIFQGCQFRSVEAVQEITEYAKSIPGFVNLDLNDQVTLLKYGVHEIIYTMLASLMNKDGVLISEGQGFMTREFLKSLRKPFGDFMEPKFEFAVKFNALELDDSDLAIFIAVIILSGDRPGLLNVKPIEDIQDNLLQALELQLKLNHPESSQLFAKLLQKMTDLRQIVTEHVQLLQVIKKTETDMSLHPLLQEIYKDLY
PPARγ, sequence (P19793 whole entry partner, species assumed, the tested form may be a part): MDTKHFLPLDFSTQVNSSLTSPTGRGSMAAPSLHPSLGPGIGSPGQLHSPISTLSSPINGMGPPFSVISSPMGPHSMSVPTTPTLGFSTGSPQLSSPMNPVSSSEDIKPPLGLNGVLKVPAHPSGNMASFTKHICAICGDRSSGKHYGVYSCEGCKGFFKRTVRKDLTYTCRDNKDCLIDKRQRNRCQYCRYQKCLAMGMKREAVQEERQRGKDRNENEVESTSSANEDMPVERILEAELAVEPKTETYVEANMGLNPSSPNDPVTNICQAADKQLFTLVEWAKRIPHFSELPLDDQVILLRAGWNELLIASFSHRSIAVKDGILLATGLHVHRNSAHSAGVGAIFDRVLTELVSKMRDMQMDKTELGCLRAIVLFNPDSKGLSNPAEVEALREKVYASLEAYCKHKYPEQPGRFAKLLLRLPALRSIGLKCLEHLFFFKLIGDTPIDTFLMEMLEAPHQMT

As to `CC(/C=C/[C@@H]1C[C@]1(C)c1ccc2c(c1)C(C)(C)CCC2(C)C)=C\C(=O)O` [IRX4204], in the assay with 6-OHDA lesioned rats [1], the “APO-induced contralateral rotations versus baseline” value is “did not differ significantly from baseline”. Also, the “survival of TH-positive DA neurons” value in assay [2] is given as “increased survival”. Also, in the assay on 6-OHDA lesioned rats [3], the “DAT content in the lesioned striatum versus non-lesioned side” value is on record as “almost identical to those in the non-lesioned side” and the “TH content in the lesioned striatum versus non-lesioned side” value was “almost identical to those in the non-lesioned side”. Also, the “striatal dopamine loss in the lesioned side” value in the assay with 6-OHDA lesioned rats [4] is “much greater in the vehicle-treated group relative to the IRX4204 group”. The “activation of RXR heterodimer of PPARγ” value at PPARγ is on record as “does not activate”. For the same molecule, on RXRβ, the “concentration that fully activates RXRβ” value is recorded as 1 nM and the “concentration that partially activates RXRβ” value worked out at 0.1 nM.
